Test results from patent US20260232662A1, “MIR-124 INDUCER, AND PREPARATION METHOD THEREFOR AND USE THEREOF” (NANJING SYNNOCARE PHARMACEUTICAL TECHNOLOGY CO., LTD., priority 2023, published 2026).

Tests used:
[1] = system: miR-124; assay: Induction of miR-124 expression in PBMC cells (qPCR); assay type: cell-based; conditions: Homo sapiens, 72 h, 0.1 μM compound, human PBMCs stimulated with PMA/ionomycin, miR-191 reference gene, read-out: miR-124 expression, Fold change vs DMSO
Summary of the method: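 Human PBMCs (3.0*10^6 cells/well) were stimulated with PMA 10 ng/mL plus ionomycin 200 ng/mL for 48 h, then given compound at 0.1 μM final for 72 h. miR-124 was measured by RT-qPCR against miR-191 as reference gene. Expression is relative to DMSO control.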

[2] = system: DSS-induced IBD in mice; assay: Preventive and therapeutic effects on DSS-induced inflammatory bowel disease (IBD) in mice; assay type: in vivo; conditions: further experiments, figures not given
From the text: This study evaluated the preventive and therapeutic effects of the compounds of the present invention on dextran sulfate sodium (DSS)-induced IBD in mice. The experiment utilized female C57BL/6 mice (purchased from Beijing Vital River Laboratory Animal Technology Co., Ltd.) to establish the DSS-induced IBD model.
Female C57BL/6 mice (6-8 weeks old) were purchased from Beijing Vital River Laboratory Animal Technology Co., Ltd. Upon arrival, the mice were housed in individually ventilated cages (IVC) under specific pathogen-free (SPF) conditions, with 2-6 mice per cage. They were provided with ad libitum access to food and water and maintained at a temperature of 20-26° C. (68-79° F.), relative humidity of 40-70%, and a 12-hour light/dark cycle (lights on from 08:00 to 20:00). After a 7-day acclimatization period, experiments were initiated.
Test compounds and ABX464 vehicle: 5% DMSO+10% Solutol HS-15+85% saline, stored at 4° C.
DSS solution: 2% (w/v) DSS in autoclaved drinking water, prepared fresh before use.
The mice were randomly allocated into eight groups according to body weight: normal control group (negative control), model group (DSS group), ABX464 treatment group, test compound groups (administered with Compounds 19, 43, 59, 84, and 89 of the present invention at 40 mg/kg, p.o., q.d.)
Following a 7-day acclimation period, the model group and compound treatment groups were administered 2% DSS aqueous solution ad libitum for 7 days starting from Day 0, followed by 3 days of normal water consumption. All groups received daily oral gavage of their respective vehicles or test compounds for 10 consecutive days beginning on the trial commencement date. During the experimental period, body weight changes in mice were monitored and recorded daily, the Disease Activity Index (DAI) was scored each day with the total score calculated on the final day, and on the last experimental day all animals were humanely euthanized followed by colon collection and length measurement.
The experimental data were expressed as mean±standard error of the mean (mean±S.E.M.). Statistical analysis was performed using GraphPad Prism or SPSS software with appropriate statistical methods. A value of P<0.05 was considered statistically significant.

[3] = In vivo pharmacokinetic evaluation in mice; conditions: mouse; male ICR mice, po, 10 mg/kg, plasma
Description: The compound was administered orally (p.o.) at a dose of 10 mg/kg. The test formulation was prepared at a final concentration of 0.4 mg/mL in 5% DMSO+45% PEG400+50% aqueous solution or suspension. Male ICR mice (9 per group) were sampled at three discontinuous time points (n=3 mice/time point). Approximately 80 μL of blood was collected via orbital or cardiac puncture at 5 min, 15 min, 30 min, 1 h, 2 h, 4 h, 8 h, and 24 h post-dose. All whole blood samples were collected in EDTA K2-containing tubes. After centrifugation at 4° C. (4000 rpm, 10 min), plasma was collected and stored below −40° C. for subsequent analysis. Compound concentrations in plasma were determined by liquid chromatography-tandem mass spectrometry (LC-MS/MS), and pharmacokinetic parameters were derived from the plasma concentration-time curves.

Row | SMILES | fold induction at 0.1 µM [1] | preventive and therapeutic effects on DSS-induced IBD (body weight, DAI, colon length) relative to ABX464 [2] | AUC(0-t) [3] [ng·h/mL] | Cmax [3] [ng/mL] | Tmax [3] [h] | half-life [3] [h]
1 | FC(F)(F)Oc1ccc(Nc2nc3cc(Cl)ccc3n3ccnc23)cc1Cl [Compound B108, 7-chloro-N-(3-chloro-4-(trifluoromethoxy)phenyl) imidazolo[1,2-a] quinoxalin-4-amine] | 22.5 | outperformed the reference drug ABX464 |  |  |  | 
2 | Fc1cc(NC2=Nc3c(Cl)cccc3N3CCN=C23)ccc1OC(F)(F)F [Compound 71] | 25.3 |  | 1370 | 274 | 4 | 3.41
3 | FC(F)(F)c1ccc(Nc2nc3cccc(Cl)c3n3ccnc23)cc1Cl [Compound B54, 9-chloro-N-(3-chloro-4-(trifluoromethyl)phenyl)imidazolo [1,2-a]quinoxalin-4-amine] | 34.1 |  | 1330 | 346 | 0.5 | 1.96
4 | FC(F)(F)Oc1ccc(Nc2nc3ccc(Cl)cc3n3ccnc23)cc1 [Compound B4, 8-chloro-N-(4-(trifluoromethoxy)phenyl)imidazolo [1,2-a]quinoxalin-4-amine] | 33.1 |  | 2850 | 271 | 2 | 3.26
5 | FC(F)(F)c1ccc(NC2=Nc3c(Cl)cccc3N3CCN=C23)cc1 [Compound 68] | 29.5 |  | 879 | 243 | 0.5 | 2.17
6 | FC(F)(F)c1ccc(NC2=Nc3cc(Cl)cc(Cl)c3N3CCN=C23)cc1 [Compound B139, 7,9-dichloro-N-(4-(trifluoromethyl)phenyl)-1,2-dihydroimidazo[1,2-a] quinoxalin-4-amine] | 40.6 |  | 3260 | 375 | 2 | 3.36
7 | FC(F)(F)c1ccc(NC2=Nc3c(Cl)cccc3N3CCN=C23)cc1Cl [Compound 67] | 28.8 |  | 2030 | 403 | 4 | 3.29
8 | FC(F)(F)Oc1ccc(Nc2nc3cccc(Cl)c3n3ccnc23)cc1 [Compound B1, 9-chloro-N-(4-(trifluoromethoxy)-phenyl)imidazolo [1,2-a]quinoxalin-4-amine] | 43.8 |  | 3590 | 450 | 1 | 2.58
9 | FC1(F)Oc2ccc(NC3=Nc4c(Cl)cccc4N4CCN=C34)cc2O1 [Compound 70] | 16.4 |  | 1430 | 357 | 0.5 | 2.32
10 | Fc1cc(Nc2nc3cc(Cl)cc(Cl)c3n3ccnc23)ccc1C(F)(F)F [Compound B97, 7,9-dichloro-N-(3-fluoro-4-(trifluoromethyl)phenyl) imidazolo[1,2-a] quinoxalin-4-amine] | 26.2 | outperformed the reference drug ABX464 |  |  |  | 
11 | Fc1cc(Nc2nc3c(Cl)cccc3n3ccnc23)ccc1OC(F)(F)F [Compound 18] | 17.6 |  | 1840 | 365 | 2 | 3.78
12 | FC(F)(F)Oc1ccc(NC2=Nc3cccc(Cl)c3N3CCN=C23)cc1 [Compound B118, 9-chloro-N-(4-(trifluoromethoxy)phenyl)-1,2-dihydroimidazo[1,2-a] quinoxalin-4-amine] | 28.8 |  | 1880 | 269 | 2 | 2.47
13 | FC(F)(F)Oc1ccc(Nc2nc3cccc(Br)c3n3ccnc23)cc1Cl [Compound B83, 9-bromo-N-(3-chloro-4-(trifluoromethoxy)phenyl) imidazolo[1,2-a] quinoxalin-4-amine] |  | outperformed the reference drug ABX464 |  |  |  | 
14 | FC(F)(F)c1ccc(NC2=Nc3cccc(Cl)c3N3CCN=C23)cc1 [Compound B121, 9-chloro-N-(4-(trifluoromethyl)phenyl)-1,2-dihydroimidazo[1,2-a] quinoxalin-4-amine] | 29.5 |  | 1950 | 378 | 1 | 2.12
15 | FC(F)(F)c1ccc(Nc2nc3cc(Cl)ccc3n3ccnc23)cc1 [Compound B109, 7-chloro-N-(4-(trifluoromethyl)phenyl) imidazolo[1,2-a] quinoxalin-4-amine] | 26.4 |  |  |  |  | 
16 | FC(F)(F)Oc1ccc(Nc2nc3c(Cl)cccc3n3ccnc23)cc1 [Compound 2] | 16.5 |  | 933 | 207 | 4 | 3.45
17 | FC1(F)Oc2ccc(Nc3nc4c(Cl)cccc4n4ccnc34)cc2O1 [Compound 17] | 19 |  |  |  |  | 
18 | FS(F)(F)(F)(F)c1ccc(Nc2nc3cccc(Cl)c3n3ccnc23)cc1 [Compound B60, 9-chloro-N-(4-(thiopentafluoride)phenyl)imidazolo[1,2-a]quinoxalin-4-amine] | 24.8 |  |  |  |  | 
19 | Fc1cc(Nc2nc3cc(Cl)cc(Cl)c3n3ccnc23)ccc1OC(F)(F)F [Compound B94, 7,9-dichloro-N-(3-fluoro-4-(trifluoromethoxy)phenyl) imidazolo[1,2-a] quinoxalin-4-amine] | 26.4 |  |  |  |  | 
20 | FC(F)(F)c1ccc(Nc2nc3cc(Cl)ccc3n3ccnc23)cc1Cl [Compound B111, 7-chloro-N-(3-chloro-4-(trifluoromethyl)phenyl) imidazolo[1,2-a] quinoxalin-4-amine] | 22.5 |  |  |  |  | 
21 | Fc1cc(Nc2nc3cc(Cl)ccc3n3ccnc23)ccc1OC(F)(F)F [Compound B107, 7-chloro-N-(3-fluoro-4-(trifluoromethoxy)phenyl) imidazolo[1,2-a] quinoxalin-4-amine] | 24.4 |  |  |  |  | 
22 | Fc1cc(Cl)cc2c1N=C(Nc1ccc(OC(F)(F)F)cc1)C1=NCCN12 [Compound 91] | 27.6 |  |  |  |  | 
23 | FC(F)(F)c1ccc(Nc2nc3ccc(Cl)cc3n3ccnc23)cc1 [Compound B103, 8-chloro-N-(4-(trifluoromethyl)phenyl) imidazolo[1,2-a] quinoxalin-4-amine] | 25.5 |  |  |  |  | 
24 | Fc1ccc2c(c1)nc(Nc1ccc(OC(F)(F)F)cc1)c1nccn12 [Compound B8, 7-fluoro-N-(4-(trifluoromethoxy)phenyl)imidazolo [1,2-a]quinoxalin-4-amine] | 33.5 |  |  |  |  | 
25 | Fc1cc(NC2=Nc3cc(Cl)ccc3N3CCN=C23)ccc1OC(F)(F)F [Compound B149, 7-chloro-N-(3-fluoro-4-(trifluoromethoxy)phenyl)-1,2-dihydroimidazo[1,2-a] quinoxalin-4-amine] | 34.7 |  |  |  |  | 
26 | Fc1cc(NC2=Nc3c(Br)cccc3N3CCN=C23)ccc1C(F)(F)F [Compound 81] | 15.3 |  |  |  |  | 
27 | Fc1cc(Cl)cc2c1N1CCN=C1C(Nc1ccc(C(F)(F)F)c(Cl)c1)=N2 [Compound B135, 7-chloro-N-(3-chloro-4-(trifluoromethyl)phenyl)-9-fluoro-1,2-dihydroimidazo[1,2-a] quinoxalin-4-amine] | 24.9 |  |  |  |  | 
28 | FC(F)(F)c1ccc(Nc2nc3cccc(Cl)c3n3ccnc23)cc1 [Compound B49, 9-chloro-N-(4-(trifluoromethyl)phenyl)imidazolo [1,2-a]quinoxalin-4-amine] | 32 |  |  |  |  | 
29 | FC(F)(F)c1ccc(NC2=Nc3ccc(Cl)cc3N3CCN=C23)cc1 [Compound B145, 8-chloro-N-(4-(trifluoromethyl)phenyl)-1,2-dihydroimidazo[1,2-a] quinoxalin-4-amine] | 30 |  |  |  |  | 
